The results in this text go back to patent US20240382465A1, “AROMATIC ACETYLENE DERIVATIVE, AND PREPARATION METHOD THEREFOR AND USE THEREOF” (priority 2021, published 2024).

In assay [1] the target is recombinant Pseudomonas aeruginosa LpxC (Pseudomonas aeruginosa (strain ATCC 15692 / DSM 22644 / CIP 104116 / JCM 14847 / LMG 12228 / 1C / PRS 101 / PAO1), UniProt P47205). Description: Inhibition of LpxC enzymatic activity (fluorescamine assay). The assay is classed as biochemical. As to the method:
The degree of inhibition of the enzymatic activity of recombinant Pseudomonas aeruginosa LpxC by the compounds of the present disclosure under in vitro conditions was determined using the following method.
The experimental procedure is briefly described as follows: The test compound was first dissolved in DMSO to prepare a 10 mM stock solution. The reaction was carried out in a 96-well microplate. First, 20 μL of recombinant Pseudomonas aeruginosa LpxC (purchased from Signalway Antibody, product number AP74647-2) was added to each well, with a final concentration of 5 nM. 5 μL of the compound to be tested was then added, and the compound was diluted 4 times to 8 concentration points with a concentration range of 0.61-10,000 nM. 5 μL of LpxC substrate UDP-3-O—(R-3-hydroxydecanoyl)-GlcNAc (purchased from Biosynth Carbosynth, product number: mu75071) was added, with a final concentration of the substrate of 10 μM. The plate was incubated at 25° C. for 120 minutes. Then 20 μL of 2.0 mg/mL fluorescamine (purchased from sigmaaldrich, product number: F9015, solvent: 1:1 dimethylformamide/acetonitrile) was added to the reaction system, and mixed well for 10 minutes of reaction. Finally, 50 μL of 200 mM sodium phosphate buffer (pH 8.0) was added to terminate the reaction. Reading was carried out using a microplate reader (BMG), and the excitation and emission wavelengths were 390 and 495 nm respectively. By comparing with the fluorescence intensity ratio of the control group ([…]), the percentage inhibition rate of the compound at each concentration was calculated.

For the next assay, the system named is K. pneumoniae ATCC13883. Description: Antibacterial activity, MIC by broth microdilution (CLSI). The assay is classed as cell-based. The following applies: Klebsiella pneumoniae; K. pneumoniae ATCC13883, 35° C., 18 to 24 hours; read-out: MIC(K. Pneumoniae). As for the experimental part:
(§1) The in vitro minimum inhibitory concentration (MIC) was determined in accordance with the CLSI guidelines, and was measured using the broth microdilution method.
(§2) The experimental process is briefly described as follows: The test compound was dissolved in DMSO to prepare a […] stock solution, which was then prepared into 11 twice-diluted 100× high-concentration working solutions (the final concentration of the system was 64 μg/mL-0.06 μg/mL) using DMSO. The strains (K. pneumoniae ATCC13883 and E. coli ATCC 25922) frozen in −80° C. glycerol were inoculated into solid agar medium, placed in an incubator at 35° C. for 18-24 hours of incubation. After the preparation of strains was completed, an appropriate amount of solid plate culture was collected, resuspended in physiological saline, and mixed well. The bacterial suspension was adjusted to a suitable turbidity using a turbidity meter, containing approximately 1×10^8 cfu/mL bacteria. Then the bacterial suspension with the adjusted turbidity was diluted to a bacterial concentration of 5×10^5 cfu/ml using the culture medium for measurement, to complete the preparation of the inoculum solution. 198 μL of the inoculum solution was inoculated into a 96-well plate, and then added with 2 μL of a 100× high-concentration working solution of the compound. Then the 96-well plate was placed at 35° C. for 18 to 24 hours of incubation.
Background: Dilution methods test growth across graded concentrations, often in twofold steps.

A further assay deals with E. coli ATCC 25922. The description is as above. The assay is classed as cell-based. The following applies: Escherichia coli, ATCC25922; E. coli ATCC 25922, 35° C., 18 to 24 hours; read-out: MIC(E. coli). As to the method: as §1, §2
Setting [2] is: recombinant P. aeruginosa LpxC 5 nM, substrate 10 μM, 25° C., 120 minutes, read-out: IC50.

In brackets after ≈: the same amount, converted by molar mass. Like-named read-outs stand apart in the source and are kept apart here.

Take `C[C@H](O)c1nccn1Cc1cc(-c2ccc(C#Cc3ccc(CN4CCOCC4)cc3)cc2)on1` [Example 2, (S)-1-(1-((5-(4-((4-(morpholinomethyl)phenyl)ethynyl)phenyl)isoxazol-3-yl)methyl)-1H-imidazol-2-yl)ethan-1-ol]: the half-inhibitory concentration (IC50) in assay [1] (setting [2]) amounted to 0.00307 µM. Also, the MIC was 1 mg/L (≈ 2.13 µM) in the assay with K. pneumoniae ATCC13883 and 0.5 mg/L (≈ 1.07 µM) with E. coli ATCC 25922.
For `C[C@H](O)c1nccn1Cc1cc(-c2ccc(C#Cc3ccc(CN4CCOCC4)cc3)cc2)no1` [Example 3, (S)-1-(1-((3-(4-((4-(morpholinomethyl)phenyl)ethynyl)phenyl)isoxazol-5-yl)methyl)-1H-imidazol-2-yl)ethan-1-ol], in that order: 0.0249 µM, 2 mg/L (≈ 4.27 µM) and 1 mg/L (≈ 2.13 µM).
`C[C@H](O)c1nccn1Cc1cc(-c2ccc(C#Cc3ccc(C(=O)N4CCOCC4)cc3)cc2)on1` [Example 6, (S)-(4-((4-(3-((2-(1-hydroxyethyl)-1H-imidazol-1-yl)methyl)isoxazol-5-yl)phenyl)ethynyl)phenyl)(morpholino)methanone]: in assay [1] (setting [2]), the half-inhibitory concentration (IC50) was determined as 0.0129 µM. For the same molecule, the minimal inhibitory concentration (MIC) with K. pneumoniae ATCC13883 stood at 4 mg/L (≈ 8.29 µM); with E. coli ATCC 25922, 2 mg/L (≈ 4.14 µM).
For `C[C@H](O)c1nccn1Cc1cc(-c2ccc(C#Cc3ccccc3)cc2)on1` [Example 7, (S)-1-(1-((5-(4-(phenylethynyl)phenyl)isoxazol-3-yl)methyl)-1H-imidazol-2-yl)ethan-1-ol], in that order: 0.0731 µM, 0.5 mg/L (≈ 1.35 µM) and 0.25 mg/L (≈ 0.677 µM).
Consider `C[C@H](O)c1nccn1Cc1cc(-c2ccc(C#Cc3cccnc3)cc2)on1` [Example 9, (S)-1-(1-((5-(4-(pyridin-3-ylethynyl)phenyl)isoxazol-3-yl)methyl)-1H-imidazol-2-yl)ethan-1-ol], for which the IC50 in assay [1] (setting [2]) was 0.0271 µM. Moreover, the MIC in the assay on K. pneumoniae ATCC13883 was 2 mg/L (≈ 5.4 µM); in the assay with E. coli ATCC 25922, 1 mg/L (≈ 2.7 µM).
As for `C[C@H](O)c1nccn1Cc1coc(-c2ccc(C#Cc3ccc(CN4CCC(O)CC4)cc3)cc2)n1` [Example 22, (S)-1-(4-((4-(4-((2-(1-hydroxyethyl)-1H-imidazol-1-yl)methyl)oxazol-2-yl)phenyl)ethynyl)benzyl)piperidin-4-ol], the IC50 in assay [1] (setting [2]) stood at 0.0989 µM. Also, the MIC with E. coli ATCC 25922 was found to be 4 mg/L (≈ 8.29 µM).
Consider `C[C@H](O)c1nccn1Cc1cc(-c2ccc(C#Cc3ccc(CN4CCOC(C(=O)O)C4)cc3)cc2)on1` (stereo partly drawn) [Example 47, 4-(4-((4-(3-((2-((S)-1-hydroxyethyl)-1H-imidazol-1-yl)methyl)isoxazol-5-yl)phenyl)ethynyl)benzyl)morpholin-2-carboxylic acid], for which the IC50 in assay [1] came to 0.0111 µM. Besides, the minimum inhibitory concentration (MIC) in the assay with E. coli ATCC 25922 was determined as 8 mg/L (≈ 15.6 µM).
Turning to `C[C@H](O)c1nccn1Cc1cc(-c2ccc(C#Cc3ccc(C(=O)N4CCC(O)CC4)cc3)cc2)on1` [Example 67, (S)-(4-((4-(3-((2-(1-hydroxy-ethyl)-1H-imidazol-1-yl)methyl)isoxazol-5-yl)phenyl)ethynyl)phenyl)(4-hydroxypiperidin-1-yl)methanone], the IC50 in assay [1] (setting [2]) was found to be 0.0104 µM. The MIC in the assay on E. coli ATCC 25922 stood at 2 mg/L (≈ 4.03 µM).
For `C[C@H](O)c1nccn1Cc1cc(-c2ccc(C#Cc3ccc(C(=O)N4CCC(C(=O)O)CC4)cc3)cc2)on1` [Example 69, (S)-1-(4-((4-(3-((2-(1-hydroxyethyl)-1H-imidazol-1-yl)methyl)isoxazol-5-yl)phenyl)ethynyl)benzoyl)piperidin-4-carboxylic acid], in that order: 0.0104 µM and 8 mg/L (≈ 15.3 µM).
In the case of `CCN(CC)CCNC(=O)c1ccc(C#Cc2ccc(-c3cc(Cn4ccnc4[C@H](C)O)no3)cc2)cc1` [Example 70, (S)-N-(2-(diethylamino)ethyl)-4-((4-(3-((2-(1-hydroxyethyl)-1H-imidazol-1-yl)methyl)isoxazol-5-yl)phenyl)ethynyl) benzamide], in assay [1] (setting [2]), the IC50 amounted to 0.0129 µM. Moreover, in the assay on E. coli ATCC 25922, the MIC turned out to be 8 mg/L (≈ 15.6 µM).
In the case of `C[C@H](O)c1nccn1Cc1cc(-c2ccc(C#Cc3ccc(C(=O)NCCN(C)C)cc3)cc2)on1` [Example 71, (S)-N-(2-(dimethylamino)ethyl)-4-((4-(3-((2-(1-hydroxyethyl)-1H-imidazol-1-yl)methyl)isoxazol-5-yl)phenyl)ethynyl) benzamide], in assay [1] (setting [2]), the IC50 is 0.0242 µM. Moreover, in the assay on E. coli ATCC 25922, the MIC turned out to be 8 mg/L (≈ 16.5 µM).
For `C[C@H](O)c1nccn1Cc1cc(-c2ccc(C#Cc3ccc(C(=O)NCC(C)(C)O)cc3)cc2)on1` [Example 72, (S)-N-(2-hydroxy-2-methyl-propyl)-4-((4-(3-((2-(1-hydroxyethyl)-1H-imidazol-1-yl)methyl)isoxazol-5-yl)phenyl)ethynyl) benzamide], the 50% inhibitory concentration (IC50) in assay [1] (setting [2]) was 0.0266 µM. For the same molecule, the minimum inhibitory concentration (MIC) with E. coli ATCC 25922 came out at 8 mg/L (≈ 16.5 µM).
The matching figures for `C[C@H](O)c1nccn1Cc1cc(-c2ccc(C#Cc3ccc(C(=O)NCCC(=O)O)cc3)cc2)on1` [Example 73, (S)-3-(4-((4-(3-((2-(1-hydroxyethyl)-1H-imidazol-1-yl)methyl)isoxazol-5-yl)phenyl)ethynyl)benzamido)propanoic acid]: 0.0331 µM and 8 mg/L (≈ 16.5 µM).
For `C[C@H](O)c1nccn1Cc1cc(-c2ccc(C#Cc3ccc(OCC4CCN(C)CC4)cc3)cc2)on1` [Example 76, (S)-1-(1-((5-(4-((4-((1-methylpiperidin-4-yl)methoxy)phenyl)ethynyl)phenyl)isoxazol-3-yl)methyl)-1H-imidazol-2-yl) ethan-1-ol], in that order: 0.0129 µM and 8 mg/L (≈ 16.1 µM).
Regarding `C[C@H](O)c1nccn1Cc1cc(-c2ccc(C#Cc3ccc(CN4CCOC(CC(=O)O)C4)cc3)cc2)on1` (stereo partly drawn) [Example 93, 2-(4-(4-((4-(3-((2-((S)-1-hy-droxyethyl)-1H-imidazol-1-yl)methyl)isoxazol-5-yl)phenyl)ethynyl)benzyl)morpholin-2-yl) acetic acid], the IC50 in assay [1] (setting [2]) worked out at 0.0162 µM. Moreover, in the assay with E. coli ATCC 25922, the MIC stood at 8 mg/L (≈ 15.2 µM).
For `C[C@H](O)c1nccn1Cc1cc(-c2ccc(C#Cc3ccc(CN4CC(C(=O)O)C4)cc3)cc2)on1` [Example 95, (S)-1-(4-((4-(3-((2-(1-hydroxyethyl)-1H-imidazol-1-yl)methyl)isoxazol-5-yl)phenyl)ethynyl)benzyl)azetidin-3-carboxylic acid], the half-maximal inhibitory concentration (IC50) in assay [1] (setting [2]) is 0.0199 µM. The MIC with E. coli ATCC 25922 was found to be 8 mg/L (≈ 16.6 µM).
Regarding `C[C@H](O)c1nccn1Cc1cc(-c2ccc(C#Cc3ccc(CN4CCNCC4)cc3)cc2)on1` [Example 96, (S)-1-(1-((5-(4-((4-(piperazin-1-ylmethyl)phenyl)ethynyl)phenyl)isoxazol-3-yl)methyl)-1H-imidazol-2-yl)ethan-1-ol], the IC50 in assay [1] (setting [2]) amounted to 0.0159 µM. In addition, the MIC in the assay with E. coli ATCC 25922 came out at 4 mg/L (≈ 8.55 µM).
In the case of `C[C@H](O)c1nccn1Cc1cc(-c2ccc(C#Cc3ccc(CNCC(=O)O)cc3)cc2)on1` [Example 99, (S)-(4-((4-(3-((2-(1-hydroxy-ethyl)-1H-imidazol-1-yl)methyl)isoxazol-5-yl)phenyl)ethynyl)benzyl)glycinate], the IC50 in assay [1] was 0.0194 µM. Also, the MIC in the assay on E. coli ATCC 25922 was determined as 4 mg/L (≈ 8.76 µM).
Take `C[C@H](O)c1nccn1Cc1cc(-c2ccc(C#Cc3cccc(C(=O)O)c3)cc2)on1` [Example 107, (S)-3-((4-(3-((2-(1-hydroxy-ethyl)-1H-imidazol-1-yl)methyl)isoxazol-5-yl)phenyl)ethynyl) benzoic acid]: the IC50 in assay [1] (setting [2]) is 0.0163 µM. The minimum inhibitory concentration (MIC) with E. coli ATCC 25922 was 8 mg/L (≈ 19.4 µM).
The matching figures for `C[C@H](O)c1nccn1Cc1cc(-c2ccc(C#Cc3cccc(CCC(=O)O)c3)cc2)on1` [Example 109, (S)-3-(3-((4-(3-((2-(1-hydroxyethyl)-1H-imidazol-1-yl)methyl)isoxazol-5-yl)phenyl)ethynyl)phenyl)propanoic acid]: 0.0234 µM and 4 mg/L (≈ 9.06 µM).
The matching figures for `C[C@H](O)c1nccn1Cc1cc(-c2ccc(C#Cc3cccc(OCC(=O)O)c3)cc2)on1` [Example 110, (S)-2-(3-((4-(3-((2-(1-hydroxyethyl)-1H-imidazol-1-yl)methyl)isoxazol-5-yl)phenyl)ethynyl)phenoxy)acetic acid]: 0.0112 µM and 8 mg/L (≈ 18 µM).

As a reminder, the IC50 is the concentration needed to halve the response being measured. Usually MIC stands for the least concentration at which growth counts as inhibited.
